Source: the supplement of paper PMC8671470
± gives the standard deviation of the averaged measurements.

Key:
Details in all cases: 72 h
[1] = system: KU-812
Summary of the method: (§1)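 Fifteen myeloid leukaemia lines were incubated for 72 h at 37 °C with 5% CO2 across five tenfold doses from 1 to 10,000 nM, in duplicate. ATP luminescence was normalised to vehicle and to a positive control at 10 µM and fitted with a four-parameter log-logistic model. The IC50 came from these dose–response fits.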

[2] = system: Mono-Mac-6
Summary of the method: as §1

[3] = system: BV-173
Summary of the method: as §1

[4] = system: HL-60
Summary of the method: as §1

[5] = system: LAMA-84
Summary of the method: as §1

[6] = system: HEL
Summary of the method: as §1

[7] = system: KG-1
Summary of the method: as §1

[8] = system: MV4-11
Summary of the method: as §1

[9] = system: SHI-1
Summary of the method: as §1

[10] = system: MOLM-13
Summary of the method: as §1

[11] = system: NOMO-1
Summary of the method: as §1

[12] = system: ML-2
Summary of the method: as §1

[13] = system: KCL-22
Summary of the method: as §1

[14] = system: THP-1
Summary of the method: as §1

[15] = system: K-562
Summary of the method: as §1

[16] = system: HL-60; experiment: area under dose-response curve (viability, 1 nM-10 uM) (fraction (0-1)); higher = more sensitive
Summary of the method: (§2)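 For each screen, HL-60 cells in RPMI 1640 with 10% FBS carried either DMSO or 100 nM of one of three metabolic inhibitors while the full library was applied at five tenfold concentrations, 1–10,000 nM, in duplicate. Plates were 384-well and were kept 72 h at 37 °C, 5% CO2. Viability, measured by CellTiter-Glo, was normalised to wells with DMSO and with 10 μM proteasome inhibitor. Where area under the curve appears, it was fitted by four-parameter log-logistic models in drc and PharmacoGx.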

[17] = system: KU-812; experiment: cell viability (% survival relative to DMSO control, bortezomib = 0%); higher = less cytotoxic
Summary of the method: (§3)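 Reported values are percent survival from duplicate wells, averaged. Fifteen myeloid leukaemia cell lines were treated in 384-well plates with compounds at 1, 10, 100, 1000 or 10000 nM for 72 h at 37 °C in 5% CO2. Signals from CellTiter-Glo luminescence were scaled with vehicle as 100% and a 10 µM positive control as 0%.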

[18] = system: Mono-Mac-6; experiment: as above
Summary of the method: as §3

[19] = system: BV-173; experiment: as above
Summary of the method: as §3

[20] = system: HL-60; experiment: as above
Summary of the method: as §3

[21] = system: LAMA-84; experiment: as above
Summary of the method: as §3

[22] = system: HEL; experiment: as above
Summary of the method: as §3

[23] = system: SHI-1; experiment: as above
Summary of the method: as §3

[24] = system: NOMO-1; experiment: as above
Summary of the method: as §3

[25] = system: ML-2; experiment: as above
Summary of the method: as §3

[26] = system: KCL-22; experiment: as above
Summary of the method: as §3

[27] = system: K-562; experiment: as above
Summary of the method: as §3

[28] = system: HL-60; experiment: cell viability (% survival relative to DMSO control); higher = less cytotoxic
Summary of the method: as §2

C[C@](N)(Cc1ccc(O)cc1)C(=O)O [Metirosine]
Details | IC50 (cell viability) [µM]
[1] | > 10
[2] | > 10
[3] | > 10
[4] | > 10
[5] | > 10
[6] | > 10
[7] | > 10
[8] | > 10
[9] | > 10
[10] | > 10
[11] | > 10
[12] | > 10
[13] | > 10
[14] | > 10
[15] | > 10

Details | area under dose-response curve, co-treatment: AZD3965 100 nM | area under dose-response curve, co-treatment: DMSO vehicle | area under dose-response curve, co-treatment: GSK2194069 100 nM | area under dose-response curve, co-treatment: pictilisib 100 nM | cell viability, 1 nM [%] | cell viability, 10 nM [%] | cell viability, 100 nM [%] | cell viability, 1000 nM [%] | cell viability, 10000 nM [%]
[16] | < 0.0301 | < 0.0301 | < 0.0301 | < 0.0301 | – | – | – | – | –
[17] | – | – | – | – | 89.4 | 91.1 | 102 | 91.9 | 96.5
[18] | – | – | – | – | 99.2 | 101 | 107 | 92.9 | 104
[19] | – | – | – | – | 98.4 | 89.1 | 115 | 86 | 114
[20] | – | – | – | – | 99.2 | 93.7 | 89.7 | 97.6 | 107
[21] | – | – | – | – | 102 | 108 | 107 | 105 | 99.2
[22] | – | – | – | – | 101 | 92.6 | 99.6 | 94.7 | 108
[23] | – | – | – | – | 103 | 105 | 101 | 101 | 91.4
[24] | – | – | – | – | 95 | 96.6 | 103 | 93.6 | 102
[25] | – | – | – | – | 91.1 | 96.7 | 107 | 97.9 | 93.5
[26] | – | – | – | – | 107 | 95.1 | 96.9 | 91.8 | 99.7
[27] | – | – | – | – | 113 | 90.2 | 101 | 107 | 103

cell viability [%], [28]
Details | 0.001 µM | 0.01 µM | 0.1 µM | 1 µM | 10 µM
co-treatment: AZD3965 100 nM | 101 ± 4.8 | 101.8 ± 0.89 | 99 ± 11 | 95.8 ± 6.8 | 97.76 ± 0.91
co-treatment: DMSO vehicle | 108 ± 5.7 | 104 ± 3 | 101 ± 4.5 | 101 ± 5.1 | 103 ± 1.1
co-treatment: GSK2194069 100 nM | 105 ± 6 | 104 ± 11 | 98.9 ± 4 | 93.8 ± 14 | 99.6 ± 1
co-treatment: pictilisib 100 nM | 116 ± 5.2 | 105 ± 17 | 98.9 ± 5.9 | 81.1 ± 8.7 | 105 ± 10
